Reference: US8962608B2, “Cycloalkylnitrile pyrazole carboxamides as janus kinase inhibitors” (Merck Sharp & Dohme Corp., priority 2011, dated 2015)
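Note: biochemical JAK kinase assay with HTRF detection.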

Each compound was assayed against JAK2 (recombinant purified GST-tagged catalytic domain) (Homo sapiens (Human), UniProt O60674) (assay: biochemical).
Sequence of JAK2 (recombinant purified GST-tagged catalytic domain) (O60674 849-1124): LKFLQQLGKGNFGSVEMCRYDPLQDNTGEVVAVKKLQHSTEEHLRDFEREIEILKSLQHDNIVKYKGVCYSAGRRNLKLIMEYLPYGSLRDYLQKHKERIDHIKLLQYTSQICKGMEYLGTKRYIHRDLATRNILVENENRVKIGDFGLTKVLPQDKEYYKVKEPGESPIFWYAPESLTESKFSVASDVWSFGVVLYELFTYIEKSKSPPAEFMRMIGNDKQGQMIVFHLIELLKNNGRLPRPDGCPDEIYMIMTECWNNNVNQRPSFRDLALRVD
Compound `C[C@@H](N[C@@H]1CC[C@H](n2cc(C(N)=O)c(Nc3ccc(S(=O)(=O)C(F)(F)F)cc3)n2)[C@@H](C#N)C1)C1CC1` (single isomer, unassigned) [Example 28-183, 1-{(1S,2S,4R or 1R,2R,4S)-2-cyano-4-[(1-cyclopropylethyl)amino]cyclo-hexyl}-3-({4-[(trifluoromethyl)sulfonyl]phen-yl}amino)-1H-pyrazole-4-carboxamide] has an IC50 of 0.061 µM. In the case of `N#C[C@H]1C[C@H](NCC2CC2)CC[C@@H]1n1cc(C(N)=O)c(Nc2ccc(S(=O)(=O)C(F)(F)F)cc2)n1` (single isomer, unassigned) [Example 28-173, 1-{(1S,2S,4R or 1R,2R,4S)-2-cyano-4-[(cyclopropyl-methyl)amino]cyclohexyl}-3-({4-[(trifluoro-methyl)sulfonyl]phenyl}amino)-1H-pyrazole-4-carboxamide], the IC50 is reported as 0.024 µM. With `N#C[C@H]1C[C@H](OCC2CC2)CC[C@@H]1n1cc(C(N)=O)c(Nc2ccc([C@@H](O)C(F)(F)F)cc2)n1` (single isomer, unassigned) [Example 26-5, 1-[(1S,2S,4R or 1R,2R,4S)-2-cyano-4-(cyclopropylmethoxy)cyclohexyl]-3-({4-[(1R or 1S)-2,2,2-trifluoro-1-hydroxyethyl]phenyl}amino)-1H-pyrazole-4-carboxamide] the IC50 was 0.014 µM. In the case of `N#C[C@H]1C[C@@H](N2CCC2)CC[C@@H]1n1cc(C(N)=O)c(Nc2ccc([C@@H](O)C(F)(F)F)cc2)n1` (single isomer, unassigned) [Example 28-87, 1-[(1S,2S,4S or 1R,2R,4R)-4-azetidin-1-yl-2-cyanocyclohexyl]-3-({4-[(1R or 1S)-2,2,2-trifluoro-1-hydroxyethyl]phenyl}amino)-1H-pyrazole-4-carboxamide], the IC50 is reported as 0.013 µM. `CN(C)[C@@H]1CC[C@H](n2cc(C(N)=O)c(Nc3ccc(OC(F)(F)F)cc3)n2)[C@@H](C#N)C1` (single isomer, unassigned) [Example 28-54, 1-[(1S,2S,4R or 1R,2R,4S)-2-cyano-4-(dimethylamino)cyclohexyl]-3-{[4-(trifluoromethoxy)phenyl]amino}-1H-pyrazole-4-carboxamide] gave an IC50 of 0.092 µM. `N#C[C@H]1CCCC[C@@H]1n1cc(C(N)=O)c(Nc2ccccc2)n1` (racemic) [Example 2-1, 1-((1S,2S and 1R,2R)-2-cyanocyclohexyl)-3-(phenylamino)-1H-pyrazole-4-carboxamide] showed an IC50 of 0.036 µM. Work on `N#C[C@@H]1C[C@H](C(=O)NC2CCC2)CC[C@H]1n1cc(C(N)=O)c(Nc2ccc(Cl)cc2)n1` (single isomer, unassigned) [Example 35-11, 3-[(4-chlorophenyl)amino]-1-[(1R,2R,4R or 1S,2S,4S)-2-cyano-4-(cyclobutylcarbamoyl)cyclohexyl]-1H-pyrazole-4-carboxamide] yielded an IC50 of 0.078 µM. In the case of `CC1(C)CN([C@@H]2CC[C@H](n3cc(C(N)=O)c(Nc4ccc([C@@H](O)C(F)(F)F)cc4)n3)[C@@H](C#N)C2)C1` (single isomer, unassigned) [Example 28-81, 1-[(1S,2S,4R or 1R,2R,4S)-2-cyano-4-(3,3-dimethylazetidin-1-yl)cyclohexyl]-3-({4-[(1R or 1S)-2,2,2-trifluoro-1-hydroxyethyl]phenyl}amino)-1H-pyrazole-4-carboxamide], the IC50 is reported as 0.024 µM. `CN(CC1CC1)[C@@H]1CC[C@H](n2cc(C(N)=O)c(Nc3ccc(C(F)(F)F)cc3)n2)[C@@H](C#N)C1` (single isomer, unassigned) [Example 30-2, 1-{(1S,2S,4R or 1R,2R,4S)-2-cyano-4-[(cyclopropyl-methyl)(methyl)amino]cyclo-hexyl}-3-{[4-(trifluoromethyl)phenyl]amino}-1H-pyrazole-4-carboxamide] was tested, and the IC50 was 0.135 µM. `CC(C)(C)OC(=O)NC1CC[C@H](C#N)C(n2cc(C(N)=O)c(Nc3ccc(F)cc3)n2)C1` (mixture of isomers) [Example 11-5, tert-butyl [(1R,3S,4S and 1S,3R,4R) or (1S,3S,4S and 1R,3R,4R)-3-{4-carbamoyl-3-[(4-fluorophenyl)amino]-1H-pyrazol-1-yl}-4-cyanocyclohexyl]carbamate] gave an IC50 of 0.022 µM. `N#C[C@@H]1C[C@H](OCC2CC2)CC[C@H]1n1cc(C(N)=O)c(Nc2ccc([C@H](O)C(F)(F)F)cc2)n1` (single isomer, unassigned) [Example 26-6, 1-[(1R,2R,4R or 1S,2S,4S)-2-cyano-4-(cyclopropylmethoxy)cyclohexyl]-3-({4-[(1S or 1R)-2,2,2-trifluoro-1-hydroxyethyl]phenyl}amino)-1H-pyrazole-4-carboxamide] was tested, and the IC50 was 0.032 µM. Compound `CC(C)(C)OC(=O)NC1CC[C@@H](C#N)C(n2cc(C(N)=O)c(Nc3ccc(F)cc3)n2)C1` (mixture of isomers) [Example 11-4, tert-butyl [(3R,4S and 3S,4R)-3-{4-carbamoyl-3-[(4-fluorophenyl)amino]-1H-pyrazol-1-yl}-4-cyanocyclohexyl]carbamate] has an IC50 of 0.02 µM. `N#C[C@H]1C[C@@H](NCC(F)(F)F)CC[C@@H]1n1cc(C(N)=O)c(Nc2ccc(S(=O)(=O)C(F)(F)F)cc2)n1` (single isomer, unassigned) [Example 28-107, 1-{(1S,2S,4S or 1R,2R,4R)-2-cyano-4-[(2,2,2-trifluoroethyl)amino]cyclohexyl}-3-({4-[(trifluoro-methyl)sulfonyl]phenyl}amino)-1H-pyrazole-4-carboxamide] was tested, and the IC50 was 0.031 µM. `CC1(N[C@H]2CCC(n3cc(C(N)=O)c(Nc4ccc(Cl)cc4)n3)[C@@H](C#N)C2)COC1` (single isomer, unassigned) [Example 28-207, 3-[(4-chlorophenyl)amino]-1-{(1S,2S,4S or 1R,2R,4R)-2-cyano-4-[(3-methyloxetan-3-yl)amino]cyclohexyl}-1H-pyrazole-4-carboxamide] showed an IC50 of 0.022 µM. In the case of `N#C[C@H]1CCCC[C@@H]1n1cc(C(N)=O)c(Nc2ccc(Cl)c(F)c2)n1` (racemic) [Example 17-56, 3-[(4-chloro-3-fluorophenyl)amino]-1-[(1S,2S and 1R,2R)-2-cyanocyclohexyl]-1H-pyrazole-4-carboxamide], the IC50 is reported as 0.037 µM. `N#C[C@H]1CCCCC1n1cc(C(N)=O)c(Nc2ccc(S(=O)(=O)C(F)F)cc2)n1` (mixture of isomers) [Example 17-9, 1-[(1S,2S and 1R,2R)-2-cyanocyclohexyl]-3-({4-[(difluoromethyl)sulfonyl]phenyl}amino)-1H-pyrazole-4-carboxamide] was tested, and the IC50 was 0.005 µM. Work on `CC1(C)CN([C@H]2CC[C@H](n3cc(C(N)=O)c(Nc4ccc([C@@H](O)C(F)(F)F)cc4)n3)[C@@H](C#N)C2)C1` (single isomer, unassigned) [Example 28-61, 1-[(1S,2S,4S or 1R,2R,4R)-2-cyano-4-(3,3-dimethylazetidin-1-yl)cyclohexyl]-3-({4-[(1R or 1S)-2,2,2-trifluoro-1-hydroxyethyl]phenyl}amino)-1H-pyrazole-4-carboxamide] yielded an IC50 of 0.004 µM. In the case of `CC(C)(c1ccc(Nc2nn([C@H]3CCCC[C@@H]3C#N)cc2C(N)=O)cc1F)[C@@H](O)C(F)(F)F` (single isomer, unassigned) [Example 17-33, 1-[(1S,2S or 1R,2R)-2-cyanocyclohexyl]-3-({3-fluoro-4-[(2R or 2S)-3,3,3-trifluoro-2-hydroxy-1,1-dimethylpropyl]phenyl}amino)-1H-pyrazole-4-carboxamide], the IC50 is reported as 0.004 µM. In the case of `N#C[C@@H]1C[C@@H](OCC2CC2)CC[C@H]1n1cc(C(N)=O)c(Nc2ccc(F)cc2)n1` (single isomer, unassigned) [Example 26-10, 1-[(1R,2R,4S or 1S,2S,4R)-2-cyano-4-(cyclopropylmethoxy)cyclohexyl]-3-[(4-fluorophenyl)amino]-1H-pyrazole-4-carboxamide], the IC50 is reported as 0.102 µM. Work on `CC(C)(C)OC(=O)N[C@@H]1CC[C@H](C#N)C(n2cc(C(N)=O)c(Nc3ccc(F)cc3)n2)C1` (single isomer, unassigned) [Example 44-1, tert-Butyl[(1R,3S,4S or 1S,3R,4R)-3-{4-carbamoyl-3-[(4-fluorophenyl)amino]-1H-pyrazol-1-yl}-4-cyanocyclohexyl]carbamate] yielded an IC50 of 0.043 µM. `N#Cc1cncc(Nc2nn([C@H]3CCCC[C@@H]3C#N)cc2C(N)=O)c1` (single isomer, unassigned) [Example 17-74, 1-[(1R,2R or 1S,2S)-2-cyanocyclohexyl]-3-[(5-cyanopyridin-3-yl)amino]-1H-pyrazole-4-carboxamide] showed an IC50 of 0.049 µM. `N#C[C@@H]1CCCC[C@H]1n1cc(C(N)=O)c(Nc2ccc(S(=O)(=O)C(F)F)cc2)n1` (single isomer, unassigned) [Example 43-6, 1-[(1S,2S or 1R,2R)-2-cyanocyclohexyl]-3-({4-[(difluoromethyl)sulfonyl]phenyl}amino)-1H-pyrazole-4-carboxamide] gave an IC50 of 0.002 µM. For `N#C[C@@H]1C[C@H](OCC2CC2)CC[C@H]1n1cc(C(N)=O)c(Nc2ccc([C@@H](O)C(F)(F)F)cc2)n1` (single isomer, unassigned) [Example 26-8, 1-[(1R,2R,4R or 1S,2S,4S)-2-cyano-4-(cyclopropylmethoxy)cyclohexyl]-3-({4-[(1R or 1S)-2,2,2-trifluoro-1-hydroxyethyl]phenyl}amino)-1H-pyrazole-4-carboxamide], the IC50 was 0.019 µM. `N#C[C@H]1C[C@H](OC(=O)Nc2ccccc2)CCC1n1cc(C(N)=O)c(Nc2ccc(F)cc2)n1` (mixture of isomers) [Example 34-3, (1R,3S,4S and 1S,3R,4R)-4-{4-carbamoyl-3-[(4-fluorophonyl)aminol-1H-pyrazol-1-yl}-3-cyanocyclohexyl phenylcarbamate] gave an IC50 of 0.013 µM. Compound `N#C[C@H]1C[C@@H](N2CCC2)CC[C@@H]1n1cc(C(N)=O)c(Nc2ccc(Cl)c(F)c2)n1` (single isomer, unassigned) [Example 28-36, 1-[(1S,2S,4S or 1R,2R,4R)-4-azetidin-1-yl-2-cyanocyclohexyl]-3-[(4-chloro-3-fluorophenyl)amino]-1H-pyrazole-4-carboxamide] has an IC50 of 0.084 µM. `N#C[C@H]1C[C@@H](NCC(F)(F)F)CCC1n1cc(C(N)=O)c(Nc2ccc(S(=O)(=O)C(F)(F)F)cc2)n1` (mixture of isomers) [Example 27-11, 1-{(1S,2S,4S and 1R,2R,4R)-2-cyano-4-[(2,2,2-trifluoroethyl)amino]cyclohexyl}-3-({4-[(trifluoromethyl)sulfonyl]phenyl}amino)-1H-pyrazole-4-carboxamide] showed an IC50 of 0.006 µM.
